Test results taken from US11987807B2, “Isolated human lung progenitor cells and uses thereof” (THE GENERAL HOSPITAL CORPORATION, priority 2012, dated 2024).

What was measured:
human iPSC and ESC lines = assay: Definitive endoderm generation from human iPSC/ESC (FOXA2/SOX17 co-staining); type: cell-based; details: screen of multiple PI3K inhibitors (LY-294002, ZSTK474, Wortmannin, PI828, NVP-BKM120, PIK-75)
Experimental: The endoderm is one of the three primary germ cell layers in the embryo. It forms the embryonic gut which in turn gives rise to the epithelia of the lungs and digestive organs. Therefore, the first essential step for directing human iPSC towards a lung lineage is to generate endoderm cells, preferably with high efficiency. […] For example, the current published protocol (Mou et al., 2012; RPMI+2% B27+100 ng/ml TGF-beta agonist Activin A+5 uM LY-294002 PI3K Inhibitor) is effective in several human iPSC and ESC lines with definitive endoderm efficiency higher than 90%. In some “difficult” or “resistant” cell lines, this same protocol generates definitive endoderm that varies between low efficiency (<30%) to medium efficiency (40-70%). […] Therefore, this protocol is much more cost-effective than prior protocols. […]
This protocol permits a remarkable 90% or greater, including 91%, 92%, 93%, 94%, 95%, 96%, 97%, and even as high as 98% or more, of human iPSC/ESC cells to be converted into definitive endoderm cell as determined by nuclear staining for the transcription factors Foxa2 and Sox17. […] Furthermore, this protocol can be universally applied to multiple cell lines including several “difficult” cell lines that were determined to have low efficiency of definitive endoderm generation. […]

[1] = tested on: human Cystic Fibrosis iPSC-derived definitive endoderm cells; assay: Anteriorization of human Cystic Fibrosis iPSC-derived definitive endoderm (SOX2 induction); type: cell-based
Experimental: FIG. 6 is a schematic depicting an exemplary strategy and time line to generate Nkx2.1+ lung multipotent progenitors from human iPSCs. Data from the experiment indicate a step-wise differentiation of Nkx2.1+ lung progenitors from human iPSCs. A high yield of definitive endoderm from CF1 RiPS cells was obtained after treatment for 4 days in RPMI-1640 media in the presence of 2% B27 supplement, Activin A (100 ng/ml) and 5 μM PI3 Kinase inhibitor LY294002 with more than 90% of cells co-expressing transcription factors SOX17 and FOXA2 (data not shown). Anteriorization of endoderm into foregut endoderm cells was observed by detecting SOX2 expression in Foxa2+ cells derived from CF1 RiPS cells after 4 days of treatment with 500 nM A-83-01 (TGFβ antagonist) and 100 ng/ml Noggin (BMP4 antagonist) (data not shown). NKX2.1 staining was performed after anteriorization to foregut cells at D8 with serum-free medium containing 20 ng/ml BMP4, 20 ng/ml FGF2 and 5 nM GSK3iXV for 4 days (data not shown). […] In addition, confocal images following immunofluorescence staining indicates some Nkx2.1+ sphere contain basal cells positive for p63 (data not shown).
By using anteriorization conditions similar to Green et al., the induction of SOX2 expression in DE cells was obtained with efficiencies of up to 50%-60% after 4 days of treatment with A-83-01 (a TGFβ antagonist; data not shown). […]

[2] = tested on: mouse ESC-derived endoderm / anterior foregut endoderm cells; details: after 2 days TGFβ inhibition, then BMP4/FGF2/WNT agonist cocktail 2 days
From the text: Dorsomorphin inhibits BMP signaling through the SMAD pathway while PD98059 inhibits MAPK signaling.
A recent report described a monolayer-based strategy using synergistic activation of Nodal and Wnt-β-catenin signaling as well as staged BMP4 inhibition to direct mouse ES cells towards an endoderm fate with high efficiency (Sherwood et al., 2011). This technology was adapted herein to generate definitive endoderm (DE) from mouse ES cells. […] Snoeck and colleagues reported that Noggin (a BMP inhibitor) synergized with SB431542 (a TGFβ inhibitor) to suppress a posterior endoderm fate (Cdx2+) in favor of an anterior endoderm fate (Sox2+) (Green et al., 2011). […] Endoderm was treated with combinations of Activin (a TGFβ agonist), A-83-01 (a TGFβ antagonist), BMP4, and Dorsomorphin (a BMP4 antagonist) for 2 days (FIG. 2B). The number of FoxA2+Sox2+ anterior endoderm cells was compared to the total number of FoxA2+ endoderm cells (FIG. 2B). The treated cells were further exposed to the BMP4/FGF2/WNT agonist cocktail for another 2 days to examine their competence to generate Nkx2.1+ cells (FIG. 2B). […] It was tested if their inhibition would enhance anteriorization together with a TGFβ inhibitor.
The expression of lung and other anterior cell fate lineage genes including FoxN1 (thymus), Pax8 (thyroid), and Pax9 and Tbx1 (pharyngeal pouch endoderm) was analyzed by real-time qPCR (Figure S4A).
It was tested if BMP4, FGF2, and WNT signaling are each required to specify lung endoderm from the anterior foregut in an in vitro mouse ESC differentiation system. To do this, anteriorized endoderm cells were exposed to combinations of BMP4, FGF2 and WNT agonists and antagonists (FIGS. 3A and B).
These complexes translocate to the nucleus and activate expression of target genes (von Bubnoff and Cho, 2001; Chen et al., 2004; Sieber et al., 2009; Miyazono et al., 2010). Besides Smad1/5/8-mediated transcription, BMP-induced receptor complexes can activate the mitogen-activated protein kinase (MAPK) pathway via ERK, […] or p38 (Kozawa et al., 2002).
Mouse Endoderm Anteriorization and Nkx2.1 Cell Differentiation: Mouse definitive endoderm was generated as described herein. To anteriorize endoderm, on and after day 5, the cells were split and re-seeded on to the plates pre-coated with 804G-conditioned medium and fed with DO medium+0.5-1 μM A8301 (CalBiochem, 616454) for 2 days.

[3] = tested on: mouse ES cell-derived definitive endoderm; assay: Anteriorization of mouse ESC-derived definitive endoderm to FoxA2+Sox2+ anterior foregut endoderm; type: cell-based; details: TGFβ inhibition, 2 days
Experimental: This technology was adapted herein to generate definitive endoderm (DE) from mouse ES cells. […] Next, it was asked if the newly generated DE cells have the competence to generate Nkx2.1+ cells. […] Since the inventors had already incorporated BMP inhibition during DE generation (FIG. 7), the question whether continuous BMP inhibition is necessary for anteriorization or if TGFβ inhibition alone was sufficient for anterior patterning was explored. Endoderm was treated with combinations of Activin (a TGFβ agonist), A-83-01 (a TGFβ antagonist), BMP4, and Dorsomorphin (a BMP4 antagonist) for 2 days (FIG. 2B). The number of FoxA2+Sox2+ anterior endoderm cells was compared to the total number of FoxA2+ endoderm cells (FIG. 2B). The treated cells were further exposed to the BMP4/FGF2/WNT agonist cocktail for another 2 days to examine their competence to generate Nkx2.1+ cells (FIG. 2B). […] It was tested if their inhibition would enhance anteriorization together with a TGFβ inhibitor.
Mouse Endoderm Anteriorization and Nkx2.1 Cell Differentiation: Mouse definitive endoderm was generated as described herein. To anteriorize endoderm, on and after day 5, the cells were split and re-seeded on to the plates pre-coated with 804G-conditioned medium and fed with DO medium+0.5-1 μM A8301 (CalBiochem, 616454) for 2 days. Then the media was rinsed with DO medium 2 times and switched to DO medium supplemented with 50 ng/ml BMP4, 100 ng/ml FGF2 (GIBCO, PHG0026), and 5-10 nM GSK3iXV for another 2-3 days. To generate Nkx2.1+Sox2+ proximal progenitor cells, the cells were rinsed with DO medium 2 times and switched to DO medium containing RA-supplemented B27, 50 ng/ml BMP7, 50 ng/ml FGF7, 100 nM IWR-1, and 1-2 μM PD98059 for 2 days or longer times.
Immunofluorescence: At each differentiation step, the cells were fixed with fresh paraformaldehyde (4%) for 15 min at room temperature, rinsed in PBS, washed with PBS+0.2% Triton X-100 and incubated with the primary antibodies at 4° C. overnight (>16 hrs) diluted in PBS+1% BSA. Following incubation, the cells were rinsed 4 times PBS+0.2% Triton X-100, and incubated with secondary antibodies at room temperature for 2 hours. The images were visualized using an Olympus IX71 inverted fluorescence microscope or a Nikon A1 Confocal Laser microscope.
The secondary antibodies were purchased from Invitrogen (AlexaFluor-549 and AlexaFluor-488). The quantification was performed by counting at least 5 random fields at 20× magnification and calculating the average and standard deviation.

`FC(F)c1nc2ccccc2n1-c1nc(N2CCOCC2)nc(N2CCOCC2)n1` [ZSTK474] was tested. Which “potency for definitive endoderm generation” value (human iPSC and ESC lines) did it give?
Its value is “most potent”.

For `Cc1cccc(-c2nn(C(=S)Nc3ccccc3)cc2-c2ccnc3ccccc23)n1` [A-83-01], which “induction of SOX2 expression in DE cells, efficiency” value ([1]; 4 days of treatment) is on record?
The value was 50%-60.

And the “Nkx2.1+ cells (of total cells)” value [2]?
Its value is 7%-13.

What about the “FoxA2+Sox2+ anterior endoderm (of total FoxA2+ cells)” value [3] of the same molecule?
The value was 40%-55.

B1: Noggin: a BMP4 antagonist (protein, UniProt Q13253 28-232, looked up)
Noggin: QHYLHIRPAPSDNLPLVDLIEHPDPIFDPKEKDLNETLLRSLLGGHYDPGFMATSPPEDRPGGGGGAAGGAEDLAELDQLLRQRPSGAMPSEIKGLEFSEGLAQGKKQRLSKKLRRKLQMWLWSQTFCPVLYAWNDLGSRFWPRYVKVGSCFSKRSCSVPEGMVCKPSKSVHLTVLRWRCQRRGGQRCGWIPIQYPIISECKCSC
For B1, which requirement for anteriorization [1] is on record?
The requirement for anteriorization was “not necessary”.
